Experimental data reported in publication PMC11087803 (Proceedings of the National Academy of Sciences of the …, 2024).

Legend:
[1] = Metabolic stability assay in liver microsomes; format: in vitro ADME, human
[2] = Metabolic stability assay in liver microsomes; format: in vitro ADME, mouse

Cc1nnc2n1-c1ccc(Cl)cc1C(c1ccccc1)=NC2 [Alprazolam]
HLM t1/2 ([1]; human liver microsomes 0.5 mg protein/mL, 2.0 μM compound, 37°C): 13.9 h
microsomal CLint at 2 μM ([1]; human, liver microsomes): 2 µL/min/mg
MLM t1/2 ([2]; mouse liver microsomes 0.5 mg protein/mL, 2.0 μM compound, 37°C): 4.93 h
microsomal CLint at 2 μM ([2]; mouse, liver microsomes): 5 µL/min/mg
